Laboratory results: US20150299250A1, “MACROCYCLIC COMPOUNDS AND USES THEREOF” (ADELAIDE RESEARCH & INNOVATION PTY LTD, priority 2012, published 2015)
pIC50: −log10 of the molar value. Where a SMILES comes first, the peptide text is derived from it. The star is where a group is joined. Cbz = O=C(OCc1ccccc1)*

What was measured:
[1] = molecular target: T1, 20S proteasome CP-L activity (Oryctolagus cuniculus, UniProt A0A5F9DQW2); assay: In vitro proteasome activity assay, CP-L (Z-nLPnLD-AMC); assay type: biochemical, rabbit; settings: purified 20S proteasome; highest concentration tested 25,000 nM
T1 construct: Purified rabbit 20S proteasome
Protocol: We initially determined the ability of the novel tripeptide MG132 analogues 1-6 and the macrocycles 3a and 4a to inhibit the three separate protease activities of the 20S proteasome (CT-L, -T-L and CP-L). The assays were performed in vitro using purified 20S proteasome/inhibitor mixtures, with the activity of each subunit of the proteasome assessed upon incubation with its respective target peptide. […] In addition, there is no apparent clear-cut preference for the length of tether (compare compounds 1 to 4), while the introduction of an aryl group at P3 (as in 6) is well tolerated.
Purified rabbit 20S proteasome and fluorogenic CT-L substrate (Suc-LLVY-AMC) were purchased from Boston Biochem (Cambridge, Mass., USA). The T-L and CP-L fluorogenic substrates (Ac-RLR-AMC and Z-nLPnLD-AMC) were purchased from Enzo Life Sciences (Farmingdale, N.Y., USA). The 20S proteasome was diluted to 0.2 μg/μL in 20S proteasome buffer (50 mM HEPES pH 7.6, 150 mM NaCl and 1 mM DDT) and stored at −80° C. Purified 20S proteasome (8 ng) was pre-incubated with the indicated concentrations of inhibitors for 15 minutes and subsequently added to the AMC-labeled substrate peptide (50 μM) in assay buffer (25 mM HEPES, pH 7.5, 0.5 mM EDTA, 0.05% NP-40, and 0.001% SDS (w/v)) at 37° C. for 2 hours. Fluorescent substrate cleavage by the 20S proteasome was linear during this incubation timeframe (Supplementary Figure S4. Hydrolysed 7-amino-4-methylcoumarin (AMC) was subsequently detected with the FLUOstar OPTIMA microplatefluorometer at excitation/emission of 390/460 nm. The activity was estimated in relative fluorescence units and half of the maximal inhibitory activity of the proteasome is represented by IC50 values. A minimum of three biological replicates were performed for each data point.

[2] = tested on: WE-68 Ewing's sarcoma cells; assay: Cell viability assay (7AAD, 48 hours), WE-68; assay type: cell-based; settings: 48 hours exposure; read-out: Cancer cell lines IC50 (μM) WE-68
Protocol: (§1) Cell viability assays were performed as previously described. Briefly, cells were seeded in 96 well microtiterplates at a density of 3×10^4 cells per well in the presence of the indicated chemical. Cells were harvested 48 hours post-treatment, centrifuged at 1,300×g, washed in phosphate-buffered saline (PBS) and stained with 7AAD solution (2 μg/mL) (7-amino-actinomycin-D, Invitrogen, Carlsbad, Calif.) for 10 mins at room temperature. Viable cells were determined with the use of a FACS Calibur flow cytometer (Becton Dickinson Immunocytometry Systems), and analyzed with the use of FLOWJO (Tree Star, Inc) and GraphPad Prism (GraphPad Software Inc).
(§2) WE-68 and VH-64 Ewing's sarcoma cells were kindly supplied by F. van Valen (Department of Orthopaedic Surgery, Westfalische-Wilhelms-University, Germany).TC-252 and STA-ET-1 Ewing's sarcoma cells were kindly provided by G. Hamilton (Department of Surgery, University of Vienna, Austria) or P. Ambros (Children's Cancer Research Institute, St Anna Children's Hospital, Vienna, Austria). Primary human embryonic fibroblasts or primary human osteoblasts were collected from the Women's and Children's Hospital (North Adelaide, South Australia, Australia) or Royal Adelaide Hospital with patient consent. Mouse Embryonic Fibroblasts (MEFs) and its p53-null derivative were kindly supplied by Guillermina Lozano (Department of Genetics, Anderson Cancer Centre, University of Texas, Houston, Tex., USA). WE-68 cell lines were grown in RPMI-1640 media, whilst human embryonic fibroblasts and MEFs were grown in Dulbecco's Modified Eagle's Medium (DMEM). Media was supplemented with 10% FCS, 1% PSG and 10 mM HEPES. All cells were maintained at 37° C. in a humidified atmosphere of 5% CO2.

[3] = tested on: VH-64 Ewing's sarcoma cells; assay: Cell viability assay (7AAD, 48 hours), VH-64; assay type: cell-based; settings: 48 hours exposure; read-out: Cancer cell lines IC50 (μM) VH-64
Protocol: as §1, §2

[4] = tested on: STA-ET-1 Ewing's sarcoma cells; assay: Cell viability assay (7AAD, 48 hours), STA-ET-1; assay type: cell-based; settings: 48 hours exposure; read-out: Cancer cell lines IC50 (μM) STA-ET-1
Protocol: as §1, §2

[5] = tested on: TC-252 Ewing's sarcoma cells; assay: Cell viability assay (7AAD, 48 hours), TC-252; assay type: cell-based; settings: 48 hours exposure; read-out: Cancer cell lines IC50 (μM) TC-252
Protocol: as §1, §2

[6] = tested on: primary human osteoblasts; assay: Cell viability assay (7AAD, 48 hours), normal osteoblasts; assay type: cell-based; settings: Osteoblast, 48 hours exposure, read-out: Normal cell lines IC50 (μM) Osteoblasts
Protocol: as §1, §2

[7] = tested on: normal cell lines (fibroblasts, osteoblasts); assay: Cell viability assay, normal cell lines (average); assay type: cell-based; settings: Homo sapiens; average of fibroblasts and osteoblasts
Protocol: as §1, §2

[8] = tested on: MEF p53-/- (mouse embryonic fibroblasts lacking p53); assay: Cell viability assay, MEF p53-/-; assay type: cell-based; settings: for sensitivity of MEFs lacking p53 (p53-/-) to cytotoxic effects (in words): compared with p53+/+ MEFs
Description: Although proteasome inhibitors have been translated from the bench to the clinic over the past decade, their specific mechanisms of action remain poorly understood. As discussed earlier, proteasomal over-activity in tumor cells has been attributed to aberrant degradation of numerous critical cancer-related pro proteins, including the pro-apoptotic tumor suppressor, p53. However, the role of p53 as a downstream mediator of cell death in response to proteasomal inhibition remains unclear. Therefore, we used our small library of CT-L specific proteasome inhibitors (compounds 1-6) to determine the role of p53 in their mechanism of cytotoxic action. For this purpose, we utilized mouse embryonic fibroblasts (MEFs) from transgenic p53^+/+ and p53^−/− littermates. This isogenic pair of cell lines are either competent (MEF p53^+/+) or deficient (MEF p53^−/−) in p53 protein and are used here to assess a potential role for p53 as a downstream inducer of cell death in response to proteasomal inhibition.
as §1
WE-68 and VH-64 Ewing's sarcoma cells were kindly supplied by F. van Valen (Department of Orthopaedic Surgery, Westfalische-Wilhelms-University, Germany).TC-252 and STA-ET-1 Ewing's sarcoma cells were kindly provided by G. Hamilton (Department of Surgery, University of Vienna, Austria) or P. Ambros (Children's Cancer Research Institute, St Anna Children's Hospital, Vienna, Austria). […]

T1 sequence (A0A5F9DQW2 1-212): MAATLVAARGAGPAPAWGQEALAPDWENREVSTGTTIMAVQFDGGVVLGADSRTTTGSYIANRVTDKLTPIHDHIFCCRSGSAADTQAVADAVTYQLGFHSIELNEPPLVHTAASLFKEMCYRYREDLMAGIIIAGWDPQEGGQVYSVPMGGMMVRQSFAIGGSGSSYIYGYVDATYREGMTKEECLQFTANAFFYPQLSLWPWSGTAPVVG

Structure (SMILES) | IC50 [1] [nM] | IC50 [2] [µM] | IC50 [3] [µM] | IC50 [4] [µM] | IC50 [5] [µM] | IC50 [6] [µM] | pIC50 [7] | sensitivity of MEFs lacking p53 (p53-/-) to cytotoxic effects (in words) [8] | pIC50 ([8]; Mus musculus, Fibroblast, read-out: IC50 in MEF p53-/-)
C#CCOc1ccc(C[C@@H](C=O)NC(=O)[C@H](CC(C)C)NC(=O)[C@H](CCCCN=[N+]=[N-])NC(=O)OCc2ccccc2)cc1 [Compound 4] | > 25000 | 10.8 | 1.9 | 2.6 | 1.6 | 10.4 | 4.60 |  | 
C#CCOc1ccc(C[C@@H](C=O)NC(=O)[C@H](CC(C)C)NC(=O)[C@H](CCN=[N+]=[N-])NC(=O)OCc2ccccc2)cc1 [Compound 2] | > 25000 | 4.7 | 4.9 | 5.4 | 2.3 | 13.6 | 4.67 |  | 
C#CCOc1ccc(C[C@@H](C=O)NC(=O)[C@H](CC(C)C)NC(=O)[C@H](CCCN=[N+]=[N-])NC(=O)OCc2ccccc2)cc1 [Compound 3] | > 25000 | 0.47 | 2.1 | 2.6 | 1.2 | 18.8 | 4.86 |  | 
C#CCOc1ccc(C[C@@H](C=O)NC(=O)[C@@H](NC(=O)[C@H](CCCCN=[N+]=[N-])NC(=O)OCc2ccccc2)[C@@H](C)CC)cc1 [Compound 5] | > 25000 | 0.98 | 1.1 | 1 | 0.42 | 4.8 | 4.91 | resistant | 
CC(C)C[C@@H](C=O)NC(=O)[C@H](CC(C)C)NC(=O)[C@H](CC(C)C)NC(=O)OCc1ccccc1 [MG132, reference compound] (Cbz-Leu-Leu-Leu-aldehyde) | 545 | 0.68 | 0.68 | 0.59 | 0.49 | 2.7 | 5.55 |  | 6.03
C#CCOc1ccc(C[C@@H](C=O)NC(=O)[C@H](CC(C)C)NC(=O)[C@H](Cc2ccc(N=[N+]=[N-])cc2)NC(=O)OCc2ccccc2)cc1 [Compound 6] | > 25000 | 1.1 | 1.9 | 2.4 | 0.64 | 11.6 | 4.55 | resistant | 
